Reference: ChEMBL document CHEMBL4376882, “Photodynamic Therapy for ras-Driven Cancers: Targeting G-Quadruplex RNA Structures with Bifunctional Alkyl-Modified Porphyrins” (J Med Chem, 2020)
Activity calls are given as the source filed them. The calls are words filed in the database; no cut-off is given here.

What was measured:
[1] = Drug uptake in mouse NIH/3T3 cells at 5 uM and 4 degree C after 16 hrs by FACS analysis relative to 37 degree C; assay type: ADME, cell-based; settings: nih3t3, 16 h
[2] = system: Quadruplex DNA; experiment: Binding affinity to human KRAS utr-z RNA g-quadruplex assessed as induction of hypochromicity at 1.6 uM by UV-vis spectrophotometry relative to control; assay type: nucleic-acid assay
[3] = Induction of ROS-mediated […] labelled 20-mer utr-z stem-loop RNA (unknown origin) degradation at 0.6 uM incubated for 30 mins followed by photoirradiation for 15 to 30 mins by PAGE analysis
[4] = system: PANC-1; experiment: Induction of apoptosis in human PANC1 cells assessed as cleavage of PARP1 when photoirradiated at 7.2 J/cm2 by Western blot analysis; assay type: functional, cell-based
[5] = system: PANC-1; experiment: Induction of apoptosis in human PANC1 cells assessed as viable cells at 5 nM and photoirradiated at 7.2 J/cm2 measured after 6 to 24 hrs in presence of NAC by annexin-V-propidium iodide staining based FACScalibur flow cytometry analysis (reference value: 94.5 %); assay type: functional; settings: PANC-1, light or radiation study, read-out: Activity
[6] = system: PANC-1; experiment: Induction of apoptosis in human PANC1 cells assessed as late apoptotic cells at 15 nM and photoirradiated at 7.2 J/cm2 measured after 6 to 24 hrs in presence of NAC by annexin-V-propidium iodide staining based FACScalibur flow cytometry analysis (reference value: 1.3 %); assay type: functional
[7] = system: PANC-1; experiment: Cytotoxicity against human PANC1 cells assessed as reduction in metabolic activity at 20 nM after 24 to 72 hrs in dark followed by photoirradiation in presence of NADH by resazurin assay; assay type: functional, cell-based
[8] = system: PANC-1; experiment: Induction of apoptosis in human PANC1 cells assessed as viable cells at 10 nM and photoirradiated at 7.2 J/cm2 measured after 6 to 24 hrs by annexin-V-propidium iodide staining based FACScalibur flow cytometry analysis (reference value: 91.9 %); assay type: functional; settings: PANC-1, light or radiation study, read-out: Activity
[9] = system: PANC-1; experiment: Induction of apoptosis in human PANC1 cells assessed as late apoptotic cells at 5 nM and photoirradiated at 7.2 J/cm2 measured after 6 to 24 hrs by annexin-V-propidium iodide staining based FACScalibur flow cytometry analysis (reference value: 2.7 %); assay type: functional
[10] = Aggregation property of compound at > 40 degree C; assay type: physicochemical
[11] = system: PANC-1; experiment: Induction of apoptosis in human PANC1 cells assessed as cleavage of caspase 3 when photoirradiated at 7.2 J/cm2 by Western blot analysis; assay type: functional, cell-based
[12] = molecular target: GTPase KRas (Homo sapiens) (UniProt P01116); experiment: Inhibition of KRAS in human PANC1 cells assessed as downregulation of KRAS expression at 15 nM followed by 7.2 J/cm2 irradiation after 4 hrs by Western blot analysis (reference value: 5 %); assay type: cell-based
[13] = system: PANC-1; experiment: Induction of apoptosis in human PANC1 cells assessed as early apoptotic cells at 5 nM and photoirradiated at 7.2 J/cm2 measured after 6 to 24 hrs in presence of NAC by annexin-V-propidium iodide staining based FACScalibur flow cytometry analysis (reference value: 3.1 %); assay type: functional
[14] = system: Quadruplex DNA; experiment: Induction of ROS-mediated […] labeled Ras RNA g-quadruplex (unknown origin) degradation assessed as residual RNA g-quadruplex at 0.6 uM incubated for 15 to 30 mins followed by photoirradiation for 30 mins by PAGE analysis relative to control; assay type: nucleic-acid assay
[15] = system: PANC-1; experiment: Induction of apoptosis in human PANC1 cells assessed as early apoptotic cells at 15 nM and photoirradiated at 7.2 J/cm2 measured after 6 to 24 hrs in presence of NAC by annexin-V-propidium iodide staining based FACScalibur flow cytometry analysis (reference value: 3.1 %); assay type: functional
[16] = system: PANC-1; experiment: Induction of apoptosis in human PANC1 cells assessed as viable cells at 5 nM and photoirradiated at 7.2 J/cm2 measured after 6 to 24 hrs by annexin-V-propidium iodide staining based FACScalibur flow cytometry analysis (reference value: 91.9 %); assay type: functional; settings: PANC-1, light or radiation study, read-out: Activity
[17] = system: PANC-1; experiment: Induction of apoptosis in human PANC1 cells assessed as viable cells at 15 nM and photoirradiated at 7.2 J/cm2 measured after 6 to 24 hrs by annexin-V-propidium iodide staining based FACScalibur flow cytometry analysis (reference value: 91.9 %); assay type: functional; settings: PANC-1, light or radiation study, read-out: Activity
[18] = Induction of ROS-mediated Cys5.5 labelled utr-z RNA duplex (unknown origin) degradation at 0.6 uM incubated for 30 mins followed by photoirradiation for 15 to 30 mins by PAGE analysis
[19] = Toxicity in SCID mouse xenografted with human PANC1 cells assessed as tissue damage around the irradiated tumor at 3 mg/kg administered intratumorally after 2 hrs photoirradiated by diode laser at 193 J/cm2; assay type: organism-based; settings: in vivo, other
[20] = Binding affinity to NRAS RNA g-quadruplex (unknown origin) at 40 degree C by SPR analysis; assay type: nucleic-acid assay
[21] = system: PANC-1; experiment: Induction of apoptosis in human PANC1 cells assessed as necrotic cells at 15 nM and photoirradiated at 7.2 J/cm2 measured after 6 to 24 hrs by annexin-V-propidium iodide staining based FACScalibur flow cytometry analysis (reference value: 0.7 %); assay type: functional
[22] = system: MIA PaCa-2; experiment: Cytotoxicity against human MIAPaCa2 cells harboring G12C point mutation assessed as reduction in metabolic activity after 48 hrs in dark followed by photoirradiation in presence of NADH by resazurin assay; assay type: functional, cell-based
[23] = Induction of ROS-mediated Cys5.5 labelled utr-c RNA duplex (unknown origin) degradation at 0.6 uM incubated for 30 mins followed by photoirradiation for 15 to 30 mins by PAGE analysis
[24] = system: Quadruplex DNA; experiment: Induction of ROS-mediated […] labeled Ras RNA g-quadruplex (unknown origin) degradation assessed as increase in residual RNA g-quadruplex at 0.6 uM incubated for 30 mins in presence of NAC followed by photoirradiation for 15 to 30 mins by PAGE analysis relative to control; assay type: nucleic-acid assay
[25] = system: PANC-1; experiment: Induction of apoptosis in human PANC1 cells assessed as necrotic cells at 10 nM and photoirradiated at 7.2 J/cm2 measured after 6 to 24 hrs in presence of NAC by annexin-V-propidium iodide staining based FACScalibur flow cytometry analysis (reference value: 1 %); assay type: functional
[26] = Drug localization in cytoplasm of human PANC1 cells at 5 uM after 6 hrs by Hoechst staining based confocal microscopy; assay type: ADME, subcellular; settings: panc-1, 6 h
[27] = system: PANC-1; experiment: Induction of apoptosis in human PANC1 cells assessed as late apoptotic cells at 10 nM and photoirradiated at 7.2 J/cm2 measured after 6 to 24 hrs by annexin-V-propidium iodide staining based FACScalibur flow cytometry analysis (reference value: 2.7 %); assay type: functional
[28] = system: PANC-1; experiment: Induction of apoptosis in human PANC1 cells assessed as late apoptotic cells at 5 nM and photoirradiated at 7.2 J/cm2 measured after 6 to 24 hrs in presence of NAC by annexin-V-propidium iodide staining based FACScalibur flow cytometry analysis (reference value: 1.3 %); assay type: functional
[29] = molecular target: GTPase NRas (Homo sapiens) (UniProt P01111); experiment: Inhibition of NRAS in human PANC1 cells assessed as downregulation of NRAS expression at 15 nM after 4 hrs by Western blot analysis; assay type: cell-based
[30] = system: PANC-1; experiment: Induction of apoptosis in human PANC1 cells assessed as cleavage of caspase 7 when photoirradiated at 7.2 J/cm2 by Western blot analysis; assay type: functional, cell-based

Sequence of GTPase KRas (Homo sapiens) (P01116 whole entry, looked up): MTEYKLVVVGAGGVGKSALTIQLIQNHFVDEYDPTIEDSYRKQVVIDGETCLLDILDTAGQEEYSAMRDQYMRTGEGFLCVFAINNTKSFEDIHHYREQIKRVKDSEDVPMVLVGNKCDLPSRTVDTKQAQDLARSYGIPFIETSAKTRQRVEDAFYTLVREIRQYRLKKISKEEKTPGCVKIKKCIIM
Sequence of GTPase NRas (Homo sapiens) (P01111 whole entry): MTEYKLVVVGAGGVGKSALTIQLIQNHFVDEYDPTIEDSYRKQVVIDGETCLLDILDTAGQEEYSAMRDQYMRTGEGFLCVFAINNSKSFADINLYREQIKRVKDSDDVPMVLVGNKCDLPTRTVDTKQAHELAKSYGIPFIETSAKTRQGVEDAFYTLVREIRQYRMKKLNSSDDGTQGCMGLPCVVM

CCCCCCCCCCCCCC[n+]1ccc(-c2c3nc(c(-c4cc[n+](C)cc4)c4ccc([nH]4)c(-c4cc[n+](C)cc4)c4nc(c(-c5cc[n+](C)cc5)c5ccc2[nH]5)C=C4)C=C3)cc1.[I-].[I-].[I-].[I-]
Drug uptake [1]: Active
Activity [2]: 50%
Activity [3]: inactive
Activity [4]: Active
viability at 0.005 µM [5]: 95.2%
Activity [6]: 5%
Activity [7]: Active
viability at 0.01 µM [8]: 82.1%
Activity [9]: 6.1%
Activity [10]: Active
Activity [11]: Active
inhibition [12]: 20%
Activity [13]: 2.4%
Activity [14]: 30%
Activity [15]: 3.9%
viability at 0.005 µM [16]: 88.2%
viability at 0.015 µM [17]: 70.6%
Activity [18]: inactive
Activity [19]: Non-Toxic
Kd [20]: 56 to 98 nM
Activity [21]: 4.1%
Activity [22]: Active
Activity [23]: inactive
Activity [24]: 50%
Activity [25]: 2.3%
Drug uptake [26]: Active
Activity [27]: 10.9%
Activity [28]: 1.1%
inhibition [29]: inactive
Activity [30]: Active
